Test results: the supplement of paper PMC11451515

Tested on: P12-Ichikawa
Experiment: cell viability relative to DMSO control; higher = less cytotoxic
Conditions: 48 h
Summary of the method: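 Viability, reported as a per-plate percentage of DMSO wells with cell-free wells as background, came from CellTiter-Glo One luminescence. Reading took place after 48 h at 37°C. Before that, NOMO1 or SEM (500 cells/well) or P12-Ichikawa (1000 cells/well) leukemia cells, adapted for at least four passages in each medium, were seeded in 1536-well plates (5 μl) and pin-dosed with library compounds in DMSO, 47 μM to 0.79 nM over 11 threefold points.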

[1] = HPLM + 10% dialyzed FBS, 0.000781 µM
[2] = HPLM + 10% dialyzed FBS, 0.00234 µM
[3] = HPLM + 10% dialyzed FBS, 0.00702 µM
[4] = HPLM + 10% dialyzed FBS, 0.0211 µM
[5] = HPLM + 10% dialyzed FBS, 0.0632 µM
[6] = HPLM + 10% dialyzed FBS, 0.19 µM
[7] = HPLM + 10% dialyzed FBS, 0.569 µM
[8] = HPLM + 10% dialyzed FBS, 1.71 µM
[9] = HPLM + 10% dialyzed FBS, 5.12 µM
[10] = HPLM + 10% dialyzed FBS, 15.4 µM
[11] = HPLM + 10% dialyzed FBS, 46.1 µM
[12] = RPMI 5 mM glucose + 10% FBS, 0.000781 µM
[13] = RPMI 5 mM glucose + 10% FBS, 0.00234 µM
[14] = RPMI 5 mM glucose + 10% FBS, 0.00702 µM
[15] = RPMI 5 mM glucose + 10% FBS, 0.0211 µM
[16] = RPMI 5 mM glucose + 10% FBS, 0.0632 µM
[17] = RPMI 5 mM glucose + 10% FBS, 0.19 µM
[18] = RPMI 5 mM glucose + 10% FBS, 0.569 µM
[19] = RPMI 5 mM glucose + 10% FBS, 1.71 µM
[20] = RPMI 5 mM glucose + 10% FBS, 5.12 µM
[21] = RPMI 5 mM glucose + 10% FBS, 15.4 µM
[22] = RPMI 5 mM glucose + 10% FBS, 46.1 µM
[23] = RPMI 5 mM glucose + 10% dialyzed FBS, 0.000781 µM
[24] = RPMI 5 mM glucose + 10% dialyzed FBS, 0.00234 µM
[25] = RPMI 5 mM glucose + 10% dialyzed FBS, 0.00702 µM
[26] = RPMI 5 mM glucose + 10% dialyzed FBS, 0.0211 µM
[27] = RPMI 5 mM glucose + 10% dialyzed FBS, 0.0632 µM
[28] = RPMI 5 mM glucose + 10% dialyzed FBS, 0.19 µM
[29] = RPMI 5 mM glucose + 10% dialyzed FBS, 0.569 µM
[30] = RPMI 5 mM glucose + 10% dialyzed FBS, 1.71 µM
[31] = RPMI 5 mM glucose + 10% dialyzed FBS, 5.12 µM
[32] = RPMI 5 mM glucose + 10% dialyzed FBS, 15.4 µM
[33] = RPMI 5 mM glucose + 10% dialyzed FBS, 46.1 µM

| SMILES | cell viability [1] | cell viability [2] | cell viability [3] | cell viability [4] | cell viability [5] | cell viability [6] | cell viability [7] | cell viability [8] | cell viability [9] | cell viability [10] | cell viability [11] | cell viability [12] | cell viability [13] | cell viability [14] | cell viability [15] | cell viability [16] | cell viability [17] | cell viability [18] | cell viability [19] | cell viability [20] | cell viability [21] | cell viability [22] | cell viability [23] | cell viability [24] | cell viability [25] | cell viability [26] | cell viability [27] | cell viability [28] | cell viability [29] | cell viability [30] | cell viability [31] | cell viability [32] | cell viability [33] |
| --- | --- | --- | --- | --- | --- | --- | --- | --- | --- | --- | --- | --- | --- | --- | --- | --- | --- | --- | --- | --- | --- | --- | --- | --- | --- | --- | --- | --- | --- | --- | --- | --- | --- |
| Cc1cccc(-c2nn(C(=S)Nc3ccccc3)cc2-c2ccnc3ccccc23)n1 | 115% | 122% | 120% | 117% | 117% | 109% | 113% | 101% | 109% | 86.3% | 78.3% | 115% | 123% | 113% | 124% | 109% | 117% | 111% | 100% | 108% | 91.4% | 74.3% | 121% | 109% | 122% | 114% | 118% | 110% | 119% | 108% | 98.9% | 49% | 73.1% |
| N[S+](=O)([O-])c1cc(Cl)c(Cl)c([S+](N)(=O)[O-])c1 | 116% | 108% | 112% | 112% | 107% | 105% | 92.3% | 102% | 108% | 101% | 97.9% | 100% | 109% | 109% | 113% | 100% | 103% | 106% | 97.3% | 106% | 99.8% | 100% | 97.5% | 105% | 97% | 101% | 104% | 101% | 105% | 97.2% | 101% | 98% | 89.8% |
| CNC1[C@@H](O)C(O[C@@H]2C(O)C(O[C@H]3O[C@H]([C@@H](C)NC)CC[C@H]3N)[C@@H](N)C[C@H]2N)OC[C@]1(C)O (some centres not stated) | 104% | 98.3% | 102% | 99.6% | 96.5% | 102% | 102% | 98.6% | 89.6% | 90.8% | 85.4% | 92.8% | 88.9% | 97.7% | 91.8% | 93% | 102% | 95.2% | 97.1% | 87.9% | 82.4% | 92.2% | 92.7% | 89.9% | 90% | 93% | 97.8% | 92.2% | 94.1% | 92.3% | 89.4% | 82.7% | 88.4% |
| CC(=O)O[C@@]1(CC[C@H]2[C@@H]3\C=C(C)/C4=C/C(=O)CC[C@]4(C)[C@H]3CC[C@]12C)C(C)=O | 99.7% | 115% | 109% | 114% | 109% | 117% | 112% | 112% | 115% | 106% | 89.1% | 101% | 107% | 110% | 117% | 115% | 117% | 120% | 109% | 100% | 99.5% | 85.5% | 94.9% | 102% | 101% | 112% | 103% | 108% | 106% | 107% | 98.2% | 93.2% | 79% |
| CO[C@H]1C[C@@H]2CC[C@@H](C)[C@@](O)(O2)C(=O)C(=O)N2CCCC[C@H]2C(=O)O[C@H]([C@H](C)C[C@@H]2CC[C@@H](OC(=O)C(C)(CO)CO)[C@H](OC)C2)CC(=O)[C@H](C)/C=C(\C)[C@@H](O)[C@@H](OC)C(=O)[C@H](C)C[C@H](C)/C=C/C=C/C=C/1C | 110% | 117% | 113% | 106% | 104% | 107% | 100% | 96% | 87.2% | 83.4% | 77.9% | 92.8% | 111% | 97.6% | 97.8% | 94.1% | 90% | 87.6% | 84.4% | 65.8% | 63.3% | 50.1% | 94.3% | 110% | 110% | 92% | 92.8% | 96.7% | 85% | 89.8% | 78.2% | 66.5% | 52.5% |
| Cc1ncc(OC[C@@]2(c3cccc(F)c3)C[C@H]2C(=O)Nc2ccc(F)cn2)c(C)n1 | 104% | 101% | 104% | 104% | 105% | 111% | 114% | 102% | 102% | 103% | 13.4% | 107% | 107% | 108% | 112% | 110% | 106% | 106% | 107% | 107% | 106% | 97.3% | 111% | 108% | 119% | 113% | 108% | 121% | 116% | 115% | 117% | 106% | 96.2% |
| O=C1C[C@@H](c2ccc(O)cc2)Oc2cc(O)cc(O)c21 | 130% | 119% | 120% | 116% | 119% | 120% | 112% | 110% | 102% | 114% | 121% | 125% | 124% | 119% | 124% | 118% | 129% | 114% | 121% | 107% | 110% | 114% | 120% | 120% | 120% | 122% | 115% | 130% | 120% | 104% | 110% | 110% | 103% |
| Clc1cc(Cl)cc(CNc2ncncc2-c2ccc3c(c2)OCO3)c1 | 93.7% | 93.6% | 92.6% | 97.4% | 100% | 90.3% | 93.8% | 97.5% | 92.6% | 94% | 10.4% | 97.6% | 92.7% | 91.3% | 93.8% | 96.3% | 93.1% | 86.6% | 94.2% | 89.9% | 86% | 47.2% | 87.6% | 96.6% | 102% | 96.1% | 95.1% | 91.7% | 92.7% | 102% | 97.9% | 99% | 61.1% |
| O=C1Nc2ccc(Cl)cc2[C@@](C#CC2CC2)(C(F)(F)F)O1 | 81.8% | 91.9% | 90.5% | 90.6% | 90.2% | 91.1% | 91.1% | 92.1% | 96.2% | 95% | 80% | 78.3% | 94.4% | 78.6% | 76.2% | 85.5% | 83.1% | 91.6% | 85% | 84.5% | 85.1% | 55.4% | 73.8% | 77.7% | 80.5% | 88.6% | 80.8% | 85.1% | 78.4% | 77.7% | 79.8% | 79% | 61.8% |
| NC1=NC=C(C=C1)C2=CC=C3N=CC\4=C(N(C(=O)\C=C4)C5=CC(=CC=C5)C(F)(F)F)C3=C2 | 81.4% | 82.7% | 76.7% | 66.7% | 58.6% | 41.1% | 42.6% | 34.5% | 11.6% | 14% | 15.7% | 67.1% | 64.9% | 56.3% | 51.8% | 50.4% | 34% | 33.4% | 27.2% | 7.23% | 7.38% | 11.5% | 64.4% | 74.4% | 59.6% | 52.7% | 50.3% | 32.9% | 30.4% | 23.7% | 7.6% | 7.89% | 12.4% |
| CC(C)[C@@H](C[S+](=O)([O-])C(C)C)N1C(=O)[C@@](C)(CC(=O)O)C[C@H](c2cccc(Cl)c2)[C@H]1c1ccc(Cl)cc1 | 109% | 103% | 108% | 106% | 113% | 71.2% | 17.2% | 14% | 15.4% | 17.7% | 15.6% | 109% | 111% | 114% | 114% | 120% | 107% | 63.3% | 50.6% | 21.7% | 11.7% | 12.1% | 119% | 117% | 120% | 123% | 122% | 112% | 81.2% | 59.7% | 25.7% | 18.1% | 21.1% |
| CCC(=O)OCC(=O)[C@@]1(OC(=O)CC)[C@@H](C)C[C@H]2[C@@H]3CCC4=CC(=O)C=C[C@]4(C)[C@@]3(F)[C@@H](O)C[C@@]21C | 107% | 110% | 111% | 107% | 111% | 96.4% | 80.1% | 65.9% | 64.3% | 12.3% | 6.01% | 106% | 111% | 121% | 108% | 102% | 89.9% | 73.4% | 68.6% | 56% | 6.2% | 6.14% | 101% | 111% | 107% | 94.8% | 90.3% | 76.2% | 67.6% | 54.6% | 52.2% | 5.68% | 4.77% |
| CN(C)C(=O)c1ccc([S+](=O)([O-])c2ccc(NC(=O)[C@@](C)(O)C(F)(F)F)c(Cl)c2)cc1 | 105% | 111% | 107% | 113% | 116% | 117% | 114% | 117% | 100% | 100% | 43.3% | 98% | 98.1% | 107% | 108% | 115% | 110% | 97.9% | 101% | 93.9% | 80.9% | 62.6% | 106% | 110% | 102% | 118% | 114% | 117% | 118% | 106% | 103% | 72.5% | 63.5% |
| CCOC(=O)[C@H](CCc1ccccc1)N[C@@H](C)C(=O)N1CCC[C@H]1C(=O)O | 120% | 108% | 116% | 111% | 102% | 117% | 112% | 109% | 108% | 97.8% | 106% | 118% | 117% | 107% | 111% | 113% | 113% | 108% | 111% | 108% | 98.1% | 101% | 114% | 111% | 106% | 110% | 113% | 116% | 105% | 121% | 104% | 108% | 102% |
